Tests used:
TbRND (RND-WT) = molecular target: T1, TbRND (RND-WT) (Trypanosoma brucei, UniProt Q38DE2); test: X-ray crystal structure (soak of apo crystals); format: binding; settings: 10 mM NMP and 10 mM MnCl2 soak, 10 min
T1 construct: gene Tb09.211.3670; residues 41-390 (N-terminal 40 residues with mitochondrial localization signal removed); codon-optimized gene; E. coli BL21(DE3); His-Sumo tag cut with Ulp1; monomer per asymmetric unit
T1 sequence (Q38DE2 41-390): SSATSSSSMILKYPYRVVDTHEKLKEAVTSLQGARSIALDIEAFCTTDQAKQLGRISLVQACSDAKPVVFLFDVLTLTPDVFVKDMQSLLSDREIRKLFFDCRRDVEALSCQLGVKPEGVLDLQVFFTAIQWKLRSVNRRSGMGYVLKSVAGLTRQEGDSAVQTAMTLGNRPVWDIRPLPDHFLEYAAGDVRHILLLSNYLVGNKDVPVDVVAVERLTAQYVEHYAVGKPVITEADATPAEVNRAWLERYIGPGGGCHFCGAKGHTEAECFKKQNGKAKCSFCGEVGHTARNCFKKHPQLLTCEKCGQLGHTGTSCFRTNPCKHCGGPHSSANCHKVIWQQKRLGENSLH

RND-Exo = molecular target: T2, RND-Exo (Trypanosoma brucei, UniProt Q38DE2 41-296); test: EMSA; no obvious shift up to 20 uM protein, 0.2 uM RNA; EMSA: 20 mM Tris-HCl pH 8.0, 200 mM NaCl, 2 mM DTT, 0.2 uM FAM-RNA, 1 h on ice; 6% native PAGE in 0.5x TBE at 4 C; settings: protein: recombinant; tags: His-SUMO removed by Ulp1; label: 5'-FAM; single strand
T2 sequence: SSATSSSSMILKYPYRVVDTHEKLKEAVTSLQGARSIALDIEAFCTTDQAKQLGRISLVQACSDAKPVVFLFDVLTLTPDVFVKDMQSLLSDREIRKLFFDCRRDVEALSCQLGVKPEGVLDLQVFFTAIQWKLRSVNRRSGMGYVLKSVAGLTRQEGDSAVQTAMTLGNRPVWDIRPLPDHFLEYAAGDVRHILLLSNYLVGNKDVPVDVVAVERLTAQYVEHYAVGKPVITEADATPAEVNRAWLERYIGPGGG

TbRND ΔZF_3-4 = TbRND ΔZF_3-4 (Trypanosoma brucei, UniProt Q38DE2 41-341); test: X-ray crystallography (1.77 A); Ca2+ (10 mM CaCl2), Zn2+; EMSA: 20 mM Tris-HCl pH 8.0, 200 mM NaCl, 2 mM DTT, 0.2 uM FAM-RNA, 1 h on ice; 6% native PAGE in 0.5x TBE at 4 C; settings: protein: recombinant; tags: His-SUMO removed by Ulp1; single strand

## Nc1ncnc2c1ncn2[C@@H]1O[C@H](COP(=O)(O)O)[C@@H](O)[C@H]1O [AMP]
TbRND (RND-WT); site: R0 of Exo domain (none in ZF1 groove), b55 says ATP soaked crystals
  X-ray crystal structure (soak of apo crystals): one AMP was captured at the R0 site in the A-form structure

## Nc1ccn([C@@H]2O[C@H](COP(=O)(O)O)[C@@H](O)[C@H]2O)c(=O)n1 [CMP]
TbRND (RND-WT); site: ZF1 groove, also R2 site of Exo domain
  X-ray crystal structure (soak of apo crystals): one CMP nucleotide was bound in ZF1 groove

## Nc1nc2c(ncn2[C@@H]2O[C@H](COP(=O)(O)O)[C@@H](O)[C@H]2O)c(=O)[nH]1 [GMP]
TbRND (RND-WT); sites: R0 and R2 of Exo domain, ZF1 groove, ZF2 groove (Mn2+-dependent), 2.25 A
  X-ray crystal structure (soak of apo crystals): we observed two GMP molecules in the G-form structure

## O=c1ccn([C@@H]2O[C@H](COP(=O)(O)O)[C@@H](O)[C@H]2O)c(=O)[nH]1 [UMP]
TbRND (RND-WT); site: ZF1 groove
  X-ray crystal structure (soak of apo crystals): one well-defined UMP molecule was captured in the groove of ZF1

## AACUUGUUUUUUUU (ssRNA) [RNA1]
RND-Exo
  binding result: no binding

## UUUUUUUUUUUU (ssRNA) [RNA-12U]
TbRND ΔZF_3-4
  binding result: binds
